# Values of other authors in US20090111747A1, “Anti-Diabetic or Anti-Hypertensive Dietary Supplement” (priority 2005, published 2009).
# Ends that are not written are not given here.
# System: mammalian α-glucosidase
# Settings: literature, Oki et al., 1999
row,Substance,inhibitory effect on mammalian α-glucosidase
1,Tyr-Tyr-Pro-Leu (YYPL; printed: Tyr-Tyr-Pro-Leu),neither the hydrolysate nor the peptides had any significant inhibitory effect
2,Val-Trp,neither the hydrolysate nor the peptides had any significant inhibitory effect

# System: rat intestinal α-glucosidase
# Settings: literature, Inoue et al., 2000
row,Substance,activity against rat intestinal α-glucosidase
1,IISIGR,active against rat intestinal α-glucosidase
2,Ile-Ile-Ser-Ile-Gly (IISIG; printed: Ile-Ile-Ser-Ile-Gly),active against rat intestinal α-glucosidase
3,VFIKAA,active against rat intestinal α-glucosidase
4,VFIKAAA,active against rat intestinal α-glucosidase
5,Val-Phe-Ile-Lys-Ala (VFIKA; printed: Val-Phe-Ile-Lys-Ala),active against rat intestinal α-glucosidase
